According to the supplement of paper PMC10307832:

Experiments:
Experiment in all cases: relative viability (nuclei count vs DMSO), 5 days (fraction); higher = more cells survive
[1] = compound: CCOC(=O)CCNc1cc(N2CCc3ccccc3CC2)nc(-c2ccccn2)n1 [GSK-J4] + C[C@@H](Oc1cc(-c2cnn(C3CCNCC3)c2)cnc1N)c1c(Cl)ccc(F)c1Cl [Crizotinib] (partner 1 µM)
Method in brief: (§1)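 Nuclei were stained with Hoechst during a one-step fixation (final 0.05% Triton X-100, 1% formaldehyde, 1 ug/ml Hoechst) carried out 5 days after dosing, then counted on 4× images. The cells, lung cancer lines in 1536-well plates, had been dosed by pin tool the day after seeding with one drug alone or a fixed anchor-drug dose plus five library-drug doses (not always all listed) in √10 steps. Relative viability is the nuclei count in treated wells divided by that in vehicle wells, and each value is the median of duplicate plates.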

[2] = compound: CN1CCC(CC1)OC2=CC(=C(C=C2)NC3=NC=C4C(=N3)N(C(=O)N4C)C5CCCC5)OC [AZ3146] + Nc1nc2[nH]cc(CCc3ccc(C(=O)N[C@@H](CCC(=O)O)C(=O)O)cc3)c2c(=O)[nH]1 [Pemetrexed] (partner 0.2 µM)
Method in brief: as §1

[3] = compound: CN1CCC(CC1)OC2=CC(=C(C=C2)NC3=NC=C4C(=N3)N(C(=O)N4C)C5CCCC5)OC [AZ3146] + N=C(N)NC(=N)NCCc1ccccc1 [Phenformin] (partner 250 µM)
Method in brief: as §1

[4] = compound: CCOC(=O)CCNc1cc(N2CCc3ccccc3CC2)nc(-c2ccccn2)n1 [GSK-J4] + COc1cccc2cc(-c3nc([C@H]4CC[C@H](C(=O)O)CC4)n4ncnc(N)c34)[nH]c12 [OSI-027] (partner 0.5 µM)
Method in brief: as §1

## UMC-11
[1]; first compound 0.5 µM
  relative viability: 0.601
[1]; first compound 1.581 µM
  relative viability: 0.557
[1]; first compound 5 µM
  relative viability: 0.702
[1]; first compound 15.81 µM
  relative viability: 0.666
[1]; first compound 50 µM
  relative viability: 0.509
[2]; first compound 0.08 µM
  relative viability: 0.643
[2]; first compound 0.253 µM
  relative viability: 0.819
[2]; first compound 0.8 µM
  relative viability: 0.782
[2]; first compound 2.53 µM
  relative viability: 0.775
[2]; first compound 8 µM
  relative viability: 0.43
[3]; first compound 0.08 µM
  relative viability: 0.299
[3]; first compound 0.253 µM
  relative viability: 0.311
[3]; first compound 0.8 µM
  relative viability: 0.345
[3]; first compound 2.53 µM
  relative viability: 0.317
[3]; first compound 8 µM
  relative viability: 0.263
[4]; first compound 0.5 µM
  relative viability: 0.474
[4]; first compound 5 µM
  relative viability: 0.362
[4]; first compound 15.81 µM
  relative viability: 0.423
[4]; first compound 50 µM
  relative viability: 0.34
